According to PMC5688156, “The natural product carolacton inhibits folate-dependent C1 metabolism by targeting FolD/MTHFD” (Nature Communications, 2017):

Assays:
U-937 = assay: Cytotoxicity screening, U-937 (alamar blue); type: cell-based, human; settings: for EC50: 5 d, alamar blue
Experimental: Half maximal effective concentrations (EC50) on human cancer cell lines were determined as described elsewhere. Human cancer cell lines were maintained as recommended by the depositor (German Collection of Microorganisms and Cell Cultures, DSMZ) and were treated for 5 d with carolacton in serial dilution. The viability of adherent cell types, HCT-116 (ACC 581), KB-3.1 (ACC-158) and KB-V.1 (ACC-149) was assessed by the addition of MTT tetrazolium salt and absorbance measurement at 570 nm. Histiocytic lymphoma U-937 cells (ACC-5) were maintained in RPMI 1640 medium and transferred into folate-free medium prior to the assay. Cell viability was determined by measuring alamar blue fluorescence emission at 590 nm. The values were referenced and EC50 values were determined by sigmoidal curve fitting. The cell lines KB-3.1 and KB-V.1 are originally derived from HeLa, whereas the latter is an MDR subclone of KB-3.1. They were used to directly compare the activity of carolacton on an mdr1 overexpressing and a sensitive cell line.

ecFolD Q98H = target: T1, ecFolD Q98H (Escherichia coli, UniProt P24186, Q98H); assay: ecFolD Q98H mutant dehydrogenase (DH) enzyme assay; type: biochemical, E. coli
T1 construct: His-tag (TEV-cleavable, vector pHis-TEV); made in house; host or cells: E. coli BL21 (DE3)
Experimental: (§1) (6R,S)-5,10-Methylene-5,6,7,8-tetrahydrofolic acid ((6R,S)-5,10-CH2-THF) calcium salt and (6R,S)-5,10-Methenyl-5,6,7,8-tetrahydrofolic acid ((6R,S)-5,10-CH=THF) chloride were purchased from Schircks Laboratories (Bauma, Switzerland) and used as substrates for FolD dehydrogenase and cyclohydrolase enzyme assays, respectively. Only the R-isomer, which accounts for 50% of (6R,S)-5,10-CH2-THF and (6R,S)-5,10-CH=THF, respectively, is used by the enzyme. (6R,S)-5,10-CH2-THF was dissolved in N2-spargeled basic buffer (50 mM Tris-HCl (pH 8.0), 100 mM β-mercaptoethanol) as described by Varshney et al.[25]. (6R,S)-5,10-CH=THF was dissolved in DMSO as a 100 mM stock solution.
Because FolD is a bifunctional enzyme, dehydrogenase and cyclohydrolase activities were determined for FolD enzyme kinetics, respectively. The dehydrogenase activity of FolD was assayed for its substrate 5,10-CH2-THF and cofactor NADP^+ (in the case of MTHFD2, NAD^+ was used as the cofactor) based on monitoring the formation of 5,10-CH=THF, while the cyclohydrolase activity of FolD was determined for its substrate 5,10-CH=THF by monitoring the hydrolysis of […]. The enzyme kinetics for the dehydrogenase activity of all FolDs except hsMTHFD1_DC were determined at 30 °C in 50 mM Tris-HCl (pH 7.5), 30 mM β-mercaptoethanol. […]

hsMTHFD1_DC = target: T2, hsMTHFD1_DC (Homo sapiens, UniProt P11586); assay: hsMTHFD1_DC cyclohydrolase (CYH) enzyme assay; type: biochemical; settings: hsMTHFD1 DC301
T2 construct: hsMTHFD1 DC301; His-tag (TEV-cleavable, vector pHis-TEV); made in house; host or cells: E. coli BL21 (DE3)
T2 sequence (P11586 2-291 limits assumed): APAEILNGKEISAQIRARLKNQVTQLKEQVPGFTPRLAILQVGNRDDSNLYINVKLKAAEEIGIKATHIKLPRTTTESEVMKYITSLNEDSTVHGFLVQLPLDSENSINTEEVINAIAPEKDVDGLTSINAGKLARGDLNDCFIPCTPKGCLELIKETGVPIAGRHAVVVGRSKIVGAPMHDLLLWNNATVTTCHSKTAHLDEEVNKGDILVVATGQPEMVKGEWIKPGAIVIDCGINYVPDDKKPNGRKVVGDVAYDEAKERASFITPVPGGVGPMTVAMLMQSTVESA
Experimental: as §1
Because FolD is a bifunctional enzyme, dehydrogenase and cyclohydrolase activities were determined for FolD enzyme kinetics, respectively. The dehydrogenase activity of FolD was assayed for its substrate 5,10-CH2-THF and cofactor NADP^+ (in the case of MTHFD2, NAD^+ was used as the cofactor) based on monitoring the formation of 5,10-CH=THF, while the cyclohydrolase activity of FolD was determined for its substrate 5,10-CH=THF by monitoring the hydrolysis of […]. The enzyme kinetics for the dehydrogenase activity of all FolDs except hsMTHFD1_DC were determined at 30 °C in 50 mM Tris-HCl (pH 7.5), 30 mM β-mercaptoethanol. The hsMTHFD1_DC dehydrogenase activity was measured in 25 mM MOPS (pH 7.3), 30 mM β-mercaptoethanol at 30 °C. […] To monitor the formation of 5,10-CH=THF, the absorbance of the reaction mixture was monitored at 350 nm in micro UV cuvettes (BRAND, Essex, Connecticut, USA). The concentration of 5,10-CH=THF produced in the reaction was determined using an extinction co-efficient of 0.0249 μM^−1 cm^−1. […] The consumption of 5,10-CH=THF was measured by recording the absorbance of the reactions at 355 nm using the TECAN Infinite 200 PRO equipped with a monochromator. […] The inhibition constants (K i) of carolacton on FolD were determined by measuring the apparent K m when adding certain amounts of carolacton to the enzyme reactions. […]

In the case of CO[C@H](CC(=O)O)[C@@H](C)C(=O)[C@H](C)/C=C(\C)[C@H]1OC(=O)[C@H](O)[C@H](O)/C=C/[C@H](C)CCC[C@@H]1C [carolacton], the EC50 (U-937; Homo sapiens, U-937, 120 h, folate-depleted medium) is reported as 42000 nM, the EC50 (U-937; Homo sapiens, U-937, 120 h, normal culture medium (RPMI 1640)) is reported as > 100000 nM and the Maximum inhibition (U-937; folate-depleted medium) is reported as 65–75%. It also gave an EC50 (U-937; folate-depleted medium) of 41700 ± 15200 nM, an IC50 (ecFolD Q98H) of 313 nM and an IC80 (ecFolD Q98H; read-out: IC80, carolacton inhibition on DH activity) of 1930 nM. The IC50 (hsMTHFD1_DC; 5 nM enzyme, read-out: IC50, carolacton inhibition on CYH activity) was 19.4 nM, the IC80 (hsMTHFD1_DC; 5 nM enzyme, read-out: IC80, carolacton inhibition on CYH activity) was 67.5 nM and the Ki (hsMTHFD1_DC; vs 5,10-CH=THF, read-out: Ki (5,10-CH=THF), carolacton inhibition on CYH activity) was 20.6 nM.
